Source: publication PMC6301967, “Molecular comparison of Neanderthal and Modern Human adenylosuccinate lyase” (Scientific Reports, 2018)
One block for each molecule: values may come before it.

Tests used:
[1] = system: T1, nADSL (Neanderthal adenylosuccinate lyase); assay: absorbance at […] nm, SAMP formation; type: biochemical, Homo sapiens neanderthalensis; details: reverse reaction, 1 mM AMP, room temperature; Michaelis-Menten fit
T1 construct: gene ADSL; Neanderthal (ancestral Ala429) variant, equals human ADSL with V429A; N-terminal thrombin-cleavable His tag (pET-14b), cut; E. coli Rosetta2 (DE3); homotetramer

[2] = target: T2, hADSL (modern human adenylosuccinate lyase) (Homo sapiens, UniProt P30566); assay: absorbance at […] nm, SAMP formation; type: biochemical; details: reverse reaction, 1 mM AMP, room temperature; Michaelis-Menten fit
T2 construct: gene ADSL; N-terminal thrombin-cleavable His tag (pET-14b), E. coli Rosetta2 (DE3); tag cut, but kept for the domain 3 mutants; homotetramer; Val429
T2 sequence (P30566 1-484): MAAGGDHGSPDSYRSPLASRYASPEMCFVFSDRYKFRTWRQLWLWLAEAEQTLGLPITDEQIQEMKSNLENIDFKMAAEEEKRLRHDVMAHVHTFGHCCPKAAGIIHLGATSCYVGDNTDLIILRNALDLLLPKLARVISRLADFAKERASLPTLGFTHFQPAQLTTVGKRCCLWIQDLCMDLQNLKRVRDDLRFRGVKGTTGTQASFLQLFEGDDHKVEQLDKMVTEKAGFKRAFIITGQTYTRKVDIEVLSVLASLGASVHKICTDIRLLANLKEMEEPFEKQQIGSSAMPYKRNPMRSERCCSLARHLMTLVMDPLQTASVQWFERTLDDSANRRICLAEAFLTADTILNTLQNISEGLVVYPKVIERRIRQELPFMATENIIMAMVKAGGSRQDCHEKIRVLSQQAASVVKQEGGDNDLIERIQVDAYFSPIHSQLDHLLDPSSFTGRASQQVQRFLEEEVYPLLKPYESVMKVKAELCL

[3] = target: T2, hADSL (modern human adenylosuccinate lyase); assay: small angle X-ray scattering; type: binding; details: 1 mM product(s), with fumarate; 20 °C; no curve change with AICAR alone
[4] = target: T2, hADSL (modern human adenylosuccinate lyase); assay: isothermal titration calorimetry; type: binding
[5] = target: T1, nADSL (Neanderthal adenylosuccinate lyase); assay: isothermal titration calorimetry; type: binding, Homo sapiens neanderthalensis; details: 10 mM HEPES pH 7.5, 100 mM NaCl, 1 mM DTT, 20 °C; 90 µM protein in cell
[6] = system: T1, nADSL (Neanderthal adenylosuccinate lyase); assay: absorbance at […] nm, SAMP breakdown; type: biochemical, Homo sapiens neanderthalensis; details: forward reaction, room temperature; positive cooperativity, Hill coefficient 1.8; read-out: K0.5
purified protein = substrate: O=C(O)C[C@H](Nc1ncnc2c1ncn2[C@@H]1O[C@H](COP(=O)(O)O)[C@@H](O)[C@H]1O)C(=O)O; assay: purified protein; type: biochemical, Homo sapiens; details: room temperature
[7] = target: the molecule itself; assay: SEC; Superdex 200 in 10 mM HEPES pH 7.5, 100 mM NaCl, 1 mM DTT; last step of the purification; single peak
[8] = target: the molecule itself; assay: crystal structure; nADSL apo (1.7 Å), with AMP/fumarate (2.3 Å) and with AICAR/fumarate; vapour diffusion, 10 mg/mL protein; homotetramer
[9] = His tag not cleaved, 0.01 mg/mL enzyme, cooperative model fit

Molecule: O=C(O)/C=C/C(=O)O [fumarate]
Km [1]: 66 µM
Km [2]: 80 µM

Molecule: NC(=O)c1ncn([C@@H]2O[C@H](COP(=O)(O)O)[C@@H](O)[C@H]2O)c1N [AICAR]
small angle X-ray scattering [3]: addition of both AMP/fumarate or AICAR/fumarate to the protein results in a similar altered scattering

Kd [4]: ~25 µM
Kd [5]: ~25 µM
Molecule: Nc1ncnc2c1ncn2[C@@H]1O[C@H](COP(=O)(O)O)[C@@H](O)[C@H]1O [AMP]

Km [6]: 1.1 µM
Molecule: O=C(O)C[C@H](Nc1ncnc2c1ncn2[C@@H]1O[C@H](COP(=O)(O)O)[C@@H](O)[C@H]1O)C(=O)O [SAMP]

B1: modern human adenylosuccinate lyase (enzyme, UniProt P30566 1-484, looked up)
chain: MAAGGDHGSPDSYRSPLASRYASPEMCFVFSDRYKFRTWRQLWLWLAEAEQTLGLPITDEQIQEMKSNLENIDFKMAAEEEKRLRHDVMAHVHTFGHCCPKAAGIIHLGATSCYVGDNTDLIILRNALDLLLPKLARVISRLADFAKERASLPTLGFTHFQPAQLTTVGKRCCLWIQDLCMDLQNLKRVRDDLRFRGVKGTTGTQASFLQLFEGDDHKVEQLDKMVTEKAGFKRAFIITGQTYTRKVDIEVLSVLASLGASVHKICTDIRLLANLKEMEEPFEKQQIGSSAMPYKRNPMRSERCCSLARHLMTLVMDPLQTASVQWFERTLDDSANRRICLAEAFLTADTILNTLQNISEGLVVYPKVIERRIRQELPFMATENIIMAMVKAGGSRQDCHEKIRVLSQQAASVVKQEGGDNDLIERIQVDAYFSPIHSQLDHLLDPSSFTGRASQQVQRFLEEEVYPLLKPYESVMKVKAELCL
notes: adenylosuccinate lyase (ADSL), modern human (Val429); Expressed from pET-14b with a thrombin-cleavable N-terminal histidine tag; also called hADSL; native hADSL; source: E. coli Rosetta2 (DE3), purified (HisTrap, thrombin cleavage, benzamidine-sepharose, Superdex 200); not shown: histidine tag, N-terminal, cleaved
K0.5 (purified protein; forward reaction, positive cooperativity, Hill coefficient 1.6): 1.1 µM
stoichiometry N [7]: 4

B2: Neanderthal adenylosuccinate lyase (enzyme)
chain: MAAGGDHGSPDSYRSPLASRYASPEMCFVFSDRYKFRTWRQLWLWLAEAEQTLGLPITDEQIQEMKSNLENIDFKMAAEEEKRLRHDVMAHVHTFGHCCPKAAGIIHLGATSCYVGDNTDLIILRNALDLLLPKLARVISRLADFAKERASLPTLGFTHFQPAQLTTVGKRCCLWIQDLCMDLQNLKRVRDDLRFRGVKGTTGTQASFLQLFEGDDHKVEQLDKMVTEKAGFKRAFIITGQTYTRKVDIEVLSVLASLGASVHKICTDIRLLANLKEMEEPFEKQQIGSSAMPYKRNPMRSERCCSLARHLMTLVMDPLQTASVQWFERTLDDSANRRICLAEAFLTADTILNTLQNISEGLVVYPKVIERRIRQELPFMATENIIMAMVKAGGSRQDCHEKIRVLSQQAASVVKQEGGDNDLIERIQADAYFSPIHSQLDHLLDPSSFTGRASQQVQRFLEEEVYPLLKPYESVMKVKAELCL
notes: Expressed from pET-14b with a thrombin-cleavable N-terminal histidine tag; also called nADSL; ancestral Ala429 ADSL variant; source: E. coli Rosetta2 (DE3), purified (HisTrap, thrombin cleavage, benzamidine-sepharose, Superdex 200); not shown: histidine tag, N-terminal, cleaved
stoichiometry N [8]: 4

B3: hADSL (modern human adenylosuccinate lyase) (Homo sapiens; D422Y) (protein)
chain: MAAGGDHGSPDSYRSPLASRYASPEMCFVFSDRYKFRTWRQLWLWLAEAEQTLGLPITDEQIQEMKSNLENIDFKMAAEEEKRLRHDVMAHVHTFGHCCPKAAGIIHLGATSCYVGDNTDLIILRNALDLLLPKLARVISRLADFAKERASLPTLGFTHFQPAQLTTVGKRCCLWIQDLCMDLQNLKRVRDDLRFRGVKGTTGTQASFLQLFEGDDHKVEQLDKMVTEKAGFKRAFIITGQTYTRKVDIEVLSVLASLGASVHKICTDIRLLANLKEMEEPFEKQQIGSSAMPYKRNPMRSERCCSLARHLMTLVMDPLQTASVQWFERTLDDSANRRICLAEAFLTADTILNTLQNISEGLVVYPKVIERRIRQELPFMATENIIMAMVKAGGSRQDCHEKIRVLSQQAASVVKQEGGDNYLIERIQVDAYFSPIHSQLDHLLDPSSFTGRASQQVQRFLEEEVYPLLKPYESVMKVKAELCL
notes: N-terminal thrombin-cleavable His tag (pET-14b), E. coli Rosetta2 (DE3); tag cut, but kept for the domain 3 mutants; homotetramer; Val429
K0.5 (purified protein; [9]): 0.36 ± 0.03 µM

B4: hADSL (modern human adenylosuccinate lyase) (Homo sapiens; R426H) (protein)
chain: MAAGGDHGSPDSYRSPLASRYASPEMCFVFSDRYKFRTWRQLWLWLAEAEQTLGLPITDEQIQEMKSNLENIDFKMAAEEEKRLRHDVMAHVHTFGHCCPKAAGIIHLGATSCYVGDNTDLIILRNALDLLLPKLARVISRLADFAKERASLPTLGFTHFQPAQLTTVGKRCCLWIQDLCMDLQNLKRVRDDLRFRGVKGTTGTQASFLQLFEGDDHKVEQLDKMVTEKAGFKRAFIITGQTYTRKVDIEVLSVLASLGASVHKICTDIRLLANLKEMEEPFEKQQIGSSAMPYKRNPMRSERCCSLARHLMTLVMDPLQTASVQWFERTLDDSANRRICLAEAFLTADTILNTLQNISEGLVVYPKVIERRIRQELPFMATENIIMAMVKAGGSRQDCHEKIRVLSQQAASVVKQEGGDNDLIEHIQVDAYFSPIHSQLDHLLDPSSFTGRASQQVQRFLEEEVYPLLKPYESVMKVKAELCL
notes: as for B3
K0.5 (purified protein; [9]): 0.75 ± 0.06 µM
